{
  "source": "patent US9579406B2",
  "about": "“Phospholipid ether analogs as agents for detecting and locating cancer, and methods thereof” (Cellectar, Inc., priority 2004, dated 2017)",
  "key": {"[1]": {"test_system": "mammary and intestinal tumors", "assay": "Apparent therapeutic responses in Apc Min/+ mammary and intestinal tumor mice", "assay_type": "in vivo, Apc^Min/+ mouse", "text": "During the course of mouse tumor uptake and retention studies with “imaging” doses (15-20 μCi/20 g mouse) of ^125I-labeled NM404, several apparent therapeutic responses have been observed (unpublished results). […] Some of these animals also lost all hair above larger mammary tumors at around 8 days after injection. Moreover, these mice also get intestinal tumors and usually suffer from intestinal bleeding resulting in severe anemia, which renders their feet white. Dr. Moser noted that the feet of these mice had reverted to a pink color around 5 days after a single injection of NM404. […] Another compelling example of tumor regression is illustrated in FIG. 6. Two litter mates each received SCC1 and SCC6 xenografts in their left and right flanks, respectively. One mouse received a single injection of ^125I-NM404 (20 μCi). […] These coincidental findings were reconfirmed in two separate age-matched groups each involving more than 6 mice. Although these observations with ^125I-NM404 are anecdotal at this point, they do seem to strongly indicate potential for radiotherapy applications particularly if labeled with iodine-131. Ongoing quantitative tumor uptake and retention studies in several animal tumor models will also provide sufficient data to initiate a comprehensive dosimetry analysis for this agent in order to estimate its true radiotherapeutic potential."}, "[2]": {"assay_type": "in vivo, human"}, "Prostate MatLyLu": {"test_system": "Prostate MatLyLu", "assay": "Tumor models examined with NM404 (Table 2)", "assay_type": "in vivo, Rat", "conditions": "Adenocarcinoma", "text": "(§1) NM404 has now been evaluated in 27 animal tumor models, including several lung, and it is clear that once the agent enters tumor cells, it reaches a metabolic dead end and becomes trapped. […] NM404 is also retained in spontaneous murine lung tumors (FIG. 13). Using ^125I-labeled NM404, the inventors have been able to image mammary and prostate tumors in mice in excess of 60 days. […] Imaging and tissue distribution studies performed in mouse models aimed at determining the uptake characteristics in a wide variety of tumor models are summarized in Table 2.\n(§2) Although tumor retention can be explained by a lack of metabolic phospholipase enzymes in the tumor cell membranes, the exact mechanism of tumor cell uptake is unknown. […] The inventors are currently evaluating the selectivity of NM404 in a unique mouse tumor model developed at Wisconsin, wherein both preneoplastic hyperplasias and malignant adenocarcinomas form spontaneously in the mammary gland. […] If this initial observation is validated, then via genomic and or proteomic analysis the inventors may be able to identify a key genetic difference between malignant tumors and their non malignant predecessor cells. This could identify a completely new molecular therapeutic target that may be universal for all types of cancer."}, "Mammary MCF-7": {"test_system": "Mammary MCF-7", "assay": "Tumor models examined with NM404 (Table 2)", "assay_type": "in vivo, Rat", "conditions": "Adenocarcinoma", "text": "as §1, §2"}, "Walker-256": {"test_system": "Walker-256", "assay": "Tumor models examined with NM404 (Table 2)", "assay_type": "in vivo, Rat", "conditions": "Carcinosarcoma", "text": "as §1, §2"}, "[3]": {"assay": "Acute GLP toxicology, single iv dose, 14 days observation, rats", "assay_type": "in vivo", "description": "Drug vehicle and drug product were provided to Dr. Kostyniak by Dr. Raymond Counsell of the University of Michigan for testing as described in the appended synopses of Study 27 and Study 28. […] This toxicology study was performed under GLP conditions.\nThis toxicology study was performed under GLP conditions.\nThe control and test rats were injected intravenously in the lateral tail vein. The rats were injected with the test or control article intravenously at 2 ml/kg of body weight using a 25 gauge needle and a 1-ml syringe. The injections were given by alternating rats from the control group with rats from the test group. The injections were given cautiously over a 30 second to one minute time interval. The injection to control rat #27-01 was given at 9:03 am and last injection to test rat #27-16 was given at 11:01 am.\nThe rats were observed by LAF personnel for signs of acute toxicity from the time of injection until […]. The rats were weighed five (5) times a week (Monday through Friday) and their body weights, recorded in […]. On Dec. […] A heart puncture was then performed using a 20 gauge needle and a 10 ml syringe to collect the blood samples for the hematological CBC and the clinical blood chemistries. The rats were exsanguinated to cause death. The thymus, heart, lungs, spleen, kidneys, liver, brain, and testes were collected, examined grossly, weighed and sectioned for pathology. The tissue samples (except thymus) were placed in jars of “Z-fix” fixative for histology.\nSixteen (16) Sprague-Dawley rats were received from Harlan-Sprague Dawley, Indianapolis, Ind. […] They were housed at the Laboratory Animal Facility and given food and water ad lib. Each rat was given a two-part number starting with 27 (the study number) and followed by a ‘unique’ number of ‘01’ to ‘16’ (numerical). Each rat was ear punched in the right ear with the unique number of ‘01’ to ‘16’. The control rats were numbered from #27-01 to #27-08 and the test rats were numbered from #27-09 to #27-16. The unique numbers were also applied to each cage indicating which rats were housed within that cage. There were four cages of control rats and four cages of test rats. […] The two groups of eight (8) rats were established by random assignment. The rats were weighed daily until the termination of the study on Day 14.\nSafety: On Day 14, the blood samples for both groups will be analyzed for hematology and clinical chemistry. Additionally, the following organs will be removed for pathology report and histology slides: brain, lung, liver, heart, kidney, spleen, and testes. A compilation chart of organ weights with organ/weight ratios for each rat may be compiled."}, "lymph node metastases": {"test_system": "lymph node metastases", "assay": "Scintigraphy in metastatic prostate tumor model", "conditions": "in vivo", "text": "A variety of tumors including mammary, prostate, squamous cell carcinoma, ovarian, colorectal, and melanoma were successfully visualized by scintigraphy with NM324.\nThis agent has also been evaluated preclinically in a metastatic prostate tumor model in which lymph node metastases were clearly delineated by scintigraphy following intravenous administration of NM404 but, pertinently, the tracer was not retained by uninvolved lymph nodes. Selectivity of NM404 for malignant cells is particularly relevant in prostate cancer as conventional tumor markers such as PSA may also be elevated in a variety of benign disease states including prostatitis and benign prostatic hypertrophy. Furthermore, selective uptake and prolonged retention by tumor cells supports a role for NM404 as a tumor-selective diagnostic and therapeutic agent."}, "Glioma L9 and CNS-1": {"test_system": "Glioma L9 and CNS-1", "assay": "Tumor models examined with NM404 (Table 2)", "assay_type": "in vivo, Rat xenograft", "text": "as §1, §2"}, "[4]": {"conditions": "male rats, 2 mg/ml at 2 ml/kg iv, 14 days"}, "[5]": {"conditions": "male rats, 2 mg/ml at 2 ml/kg iv, day 14"}},
  "data": [
    {"smiles": "C[N+](C)(C)CCOP(=O)([O-])OCCCCCCCCCCCCCCCCCCc1ccc([125I])cc1", "note": "[Compound I-125-NM404]", "values": [
      {"measurement": "survival versus untreated litter mates", "setting": "[1]; after 21 days, both intestinal models", "result": "easily outlived their untreated litter mates"},
      {"measurement": "intestinal tumors remaining at dissection", "setting": "[1]; single injection", "result": "only a very few, if any"},
      {"measurement": "mammary tumor growth", "setting": "[1]; single iv injection, 15-20 μCi/20 g mouse", "result": "tumor growth remains static"}
    ]},
    {"smiles": "C[N+](C)(C)CCOP(=O)([O-])OCCCCCCCCCCCCCCCCCCc1ccc(I)cc1", "note": "[NM-404, 18-(4-iodophenyl)-octadecylphosphocholine]", "values": [
      {"measurement": "half-life", "setting": "[2]; human, plasma, intravenous, 0.3 μg/kg, average, read-out: plasma elimination half life time (converted)", "result": 113, "unit": "h"},
      {"measurement": "agent cleared renally", "setting": "[2]; within 4 days of iv injection", "result": 4, "unit": "%"},
      {"measurement": "NM404 Tumor Localization", "setting": "Prostate MatLyLu", "result": "Yes (Localization defined as >5% injected dose per gram tumor basis based on tissue distribution data)"},
      {"measurement": "NM404 Tumor Localization", "setting": "Mammary MCF-7", "result": "Yes (Localization defined as >5% injected dose per gram tumor basis based on tissue distribution data)"},
      {"measurement": "NM404 Tumor Localization", "setting": "Walker-256", "result": "Yes (Localization defined as >5% injected dose per gram tumor basis based on tissue distribution data)"},
      {"measurement": "acute toxicologic effects (conclusion)", "setting": "[3]; [4]", "result": "No acute toxicologic effects attributable to the test article had been found"},
      {"measurement": "behavior", "setting": "[3]; [4]", "result": "No unusual behavior was noted"},
      {"measurement": "mean body weights, test versus control group", "setting": "[3]; [4]", "result": "not significantly different"},
      {"measurement": "tail vein injection site reactions", "setting": "[3]; [4]", "result": "no adverse tissue reactions were noted"},
      {"measurement": "clinical blood chemistries and hematology, t-test versus control", "setting": "[3]; [5]", "result": "no significant differences found"},
      {"measurement": "gross examination of tissues", "setting": "[3]; [5]", "result": "No gross lesions were noted"},
      {"measurement": "histopathology of organs", "setting": "[3]; [5]", "result": "no changes in the histopathology of the organs examined that can be attributed to the administration of the test material"},
      {"measurement": "toxic effects", "setting": "[3]; male rats, 4 mg/kg (Study 27)", "result": "no significant toxic effects were noted"},
      {"measurement": "acute toxicity", "setting": "[3]; unlabeled, 1200 times the anticipated imaging mass dose", "result": "no acute toxicities were found"},
      {"measurement": "localization in lymph node metastases", "setting": "lymph node metastases", "result": "clearly delineated by scintigraphy in a metastatic prostate tumor model without retention in uninvolved lymph nodes"},
      {"measurement": "NM404 Tumor Localization", "setting": "Glioma L9 and CNS-1", "result": "Yes (Localization defined as >5% injected dose per gram tumor basis based on tissue distribution data)"}
    ]}
  ]
}
